Structures are written as SMILES. Where “and” joins values, the source holds several entries; their conditions need not be identical. Identical values can stand only once.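 Five compound concentrations were applied to cells in 96-well plates for 48 hours; endpoints were derived by simple linear interpolation of the resulting dose-response curve. The concentration for 50% growth inhibition is given as GI50. TGI is the concentration that stops growth completely.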 Some results are limits rather than exact numbers.

Holding throughout (experiment): inhibition of tumour cell growth, NCI panel, 48 h
For experiment [1], the system named is OVCAR-3 ovarian.
Experiment [2] deals with COLO 205 colon.
Experiment [3] has as its system BT-549 breast.
Experiment [4] concerns SK-MEL-2 melanoma.
In experiment [5] the test system is 786-0 renal.
In experiment [6] the test system is IGROV1 ovarian.
Experiment [7] concerns SK-MEL-28 melanoma.
For experiment [8], the system named is HOP-62 NSCLC.
In experiment [9] the test system is A549 NSCLC.
The subject of experiment [10] is SNB-75 CNS.

As for `C#CCOC(=O)C(N)CCSC` (stereo not given), the TGI in [1], in experiment [2], in experiment [3], in experiment [4], in experiment [5] and in experiment [6] was more than 100 µM each time. Moreover, the TGI in experiment [7], in experiment [8], in [9] and in experiment [10] was more than 100 µM throughout.

For `COc1ccc2c(c1)-c1[nH]c3ccccc3c1CC2`, the TGI in [1] came out at 33.2 µM; in experiment [2], 32.3 µM; in experiment [3] it was 31.3 µM; in experiment [4], 29.4 µM; in experiment [5], 32.2 µM; in [6] it was 18.8 µM. Further, the TGI is 32.1 µM in [7], 30.8 µM in experiment [8], 30.4 µM in experiment [9] and 28.9 µM in experiment [10].

As for `CC(/C=N/NC1=NCCCN1)=N\NC1=NCCCN1`, the TGI in [1], in experiment [2], in [3], in [5], in experiment [6] and in experiment [7] was more than 100 µM in each case. For the same molecule, the TGI in [8], in experiment [9] and in experiment [10] was more than 100 µM each time.

As to `COc1cc(C=O)cc(C=Nc2ccc(S(N)(=O)=O)cc2)c1O`, the TGI is more than 100 µM in experiment [1]; 76.9 µM in experiment [2]; more than 100 µM in experiment [3]; 20.8 µM in experiment [4]; more than 100 µM in experiment [6]; 99 µM in experiment [7]. Besides, the figures for the TGI in experiment [8], in experiment [9] and in [10] were 48.5 µM, more than 100 µM and more than 100 µM, respectively.

With `CC1(C)C2CCC(N)(C2)C1O` (stereo not given), the TGI in [1], in experiment [2], in experiment [3], in [4], in experiment [5] and in experiment [6] was more than 100 µM each time. The TGI in experiment [7], in [8], in [9] and in experiment [10] was more than 100 µM each time.

Turning to `COC(=O)C(Cc1nc2ccccc2[nH]c1=O)C(=O)C(=O)Nc1cc(C(F)(F)F)ccc1Cl` (stereo not given), the TGI in [1] was 25.4 µM; in experiment [3], 44.5 µM; in experiment [4], 34.9 µM; in [5], 25.2 µM; in experiment [6] it was 25.3 µM; in experiment [7], more than 100 µM. In addition, the TGI was 35.1 µM in experiment [8], more than 100 µM in [9] and 46.1 µM in experiment [10].

For `COc1ccc(C[C@@H]2OC3(C=CC(=O)C=C3)O[C@H]2Cc2ccc(OC)cc2)cc1`, the TGI in [1] turned out to be 2.31 µM; in [2] it was 2.79 µM; in experiment [3], 0.505 µM; in [4] it was 3.41 µM; in [5] it was 0.412 µM; in [6] it was 1.16 µM. Also, the TGI turned out to be 3.13 µM in experiment [7], 3.59 µM in experiment [8], 11.2 µM in experiment [9] and 3.04 µM in experiment [10].

For `C#CCCCC(=O)N(C(=O)CS(=O)CC)c1ccccc1` (stereo not given), the TGI in [1], in experiment [2], in experiment [3], in experiment [4], in [5] and in [6] was more than 100 µM in each case. Moreover, the TGI in [7], in [8], in [9] and in [10] was more than 100 µM in each case.

As for `NCCCC[C@H](N)C(=O)Nc1ccc(-c2nc3ccccc3s2)cc1Cl`, the TGI in experiment [1] is 19.2 µM; in [2], 17.9 µM; in [3] it was more than 42.2 µM; in experiment [4] it was 32.7 µM; in experiment [5], 8.11 µM; in experiment [6], 22.7 µM. Also, the TGI came out at 23.4 µM in [7], 31.7 µM in experiment [8], 9.08 µM in experiment [9] and 26.8 µM in experiment [10].

With `COc1ccccc1NCC(=O)Nn1c(C)nc2ccc(S(=O)(=O)Nc3ccccc3OC)cc2c1=O`, the TGI in experiment [1], in experiment [2], in experiment [3], in experiment [4], in [5] and in experiment [6] was more than 100 µM in each case. The TGI in experiment [7], in experiment [8], in experiment [9] and in experiment [10] was more than 100 µM each time.

Regarding `CCOC(=O)CC[C@H](N)C(=O)N[C@H](Cc1ccc(N(CCCl)CCCl)cc1)C(=O)OCC`, the TGI in experiment [1] was 10.1 µM; in experiment [2] it was 4.26 µM; in experiment [3] it was more than 38 µM; in experiment [4], more than 28.4 µM; in [5] it was 5.32 µM; in experiment [6], 9.37 µM. Also, the TGI is more than 60.7 µM in experiment [7], 13.6 µM in experiment [8], more than 100 µM in [9] and 5.89 µM in experiment [10].

Turning to `CC(=O)OCC1OC(N2C(S)=C(C#N)C(c3ccco3)C(C(C)=O)=C2c2ccccc2)C(OC(C)=O)C(OC(C)=O)C1OC(C)=O` (stereo not given), the TGI in experiment [1], in [2], in experiment [3], in experiment [4], in experiment [5] and in experiment [6] was more than 100 µM throughout. In addition, the TGI was more than 100 µM in experiment [7], 45.1 µM in [8], more than 100 µM in experiment [9] and more than 100 µM in [10].

`COc1ccccc1NS(=O)(=O)c1ccc2ncn(NS(=O)(=O)c3ccc(Cl)cc3)c(=O)c2c1`: the TGI in [1], in experiment [2], in experiment [3], in experiment [4], in experiment [5] and in experiment [6] was more than 100 µM each time. In addition, the TGI in experiment [7], in experiment [8], in experiment [9] and in [10] was more than 100 µM throughout.

Take `COc1ccc2[nH]c(O)c(/C=c3/cc4c(c(-c5ccc(F)cc5)n3)=Nc3ccccc3-4)c2c1`: the GI50 in experiment [1] was 1820 nM; in experiment [3], 1800 nM; in [4] it was 12.6 µM; in experiment [6] it was 19.6 µM; in experiment [7] it was 1920 nM; in experiment [8], 1880 nM. Further, the GI50 is 2310 nM in [9] and 13 µM in experiment [10]. In addition, the TGI in experiment [1] is 3.24 µM; in [3], 3.57 µM; in [4] it was 30.7 µM; in [6] it was 48.8 µM; in [7], 4.58 µM; in experiment [8], 3.69 µM. In addition, the values for the TGI in [9] and in [10] were 6.34 µM and 27.4 µM, respectively.

As to `CCCCNC(=S)Nc1nc(C(=O)NNC(=O)c2ccccc2)cs1`, the TGI in experiment [1] worked out at 19.7 µM; in [2], 27.3 µM; in experiment [3] it was 41.4 µM; in [4], 35.9 µM; in experiment [5], 35.2 µM; in experiment [6], 40.6 µM. Further, the TGI is 42.9 µM in experiment [8], 55.2 µM in [9] and 72.7 µM in [10].

Regarding `CC(=O)C1(O)Cc2c(O)c3c(c(O)c2C(OC2CC(N)C(O)C(C)O2)C1)C(=O)c1ccccc1C3=O` (stereo not given), the GI50 is 37.5 nM in experiment [1]; 22.7 nM in experiment [2]; 60.3 nM in experiment [3]; 0.0383 µM in experiment [6]; 151 nM and 49 nM in [7]; less than 12.6 nM in experiment [8]. Moreover, the GI50 in [10] was 0.0293 µM. Besides, the TGI is 0.987 µM and 0.475 µM in experiment [1]; 0.803 µM and 0.181 µM in [2]; 0.652 µM and 1.2 µM in experiment [3]; 0.0409 µM in [5]; 0.525 µM and 0.503 µM in experiment [6]; 0.49 µM and 0.367 µM in experiment [7]. Further, the TGI is 0.275 µM and 0.118 µM in [8]; 0.338 µM in experiment [9]; 0.594 µM and 0.103 µM in experiment [10].

Regarding `COc1cc2c(c(OC)c1OC)-c1ccc(SC)cc1C(=O)CC2`, the TGI in experiment [1], in experiment [3], in [4], in [5], in experiment [6] and in experiment [7] was more than 100 µM each time. Further, the TGI in experiment [9] and in [10] was more than 100 µM throughout.

For `CN(C)c1ccc(/C=c2/c3cc([N+](=O)[O-])ccc3n3c2cc(-c2ccccc2)[n+]3C)cc1`, the TGI in experiment [1] was 5.48 µM; in experiment [2] it was 1.48 µM; in experiment [3], 13 µM; in experiment [4], 1.68 µM; in experiment [5], 10.3 µM; in experiment [6], 2.29 µM. The TGI was determined as 3.09 µM in experiment [7], 10.1 µM in [8], 11.7 µM in experiment [9] and 3.79 µM in experiment [10].

As for `OC(c1ccccc1)(c1cccnc1)C(O)(c1ccccc1)c1cccnc1` (stereo not given), the TGI in experiment [2], in experiment [3], in [4], in experiment [5], in experiment [6] and in experiment [9] was more than 100 µM throughout. In experiment [10], this molecule returned a TGI of more than 100 µM.

As for `CN(C)CCn1nc(N)c2nc3cc(C(F)(F)F)ccc3nc21`, the TGI in experiment [2], in [3], in experiment [4], in [5], in experiment [6] and in [7] was more than 100 µM throughout. Moreover, the TGI in experiment [8] is more than 100 µM; in experiment [9] it was more than 100 µM; in [10], 72 µM.

Turning to `C=CCN1CCC2(CC1)NC(=O)c1ccccc1O2`, the TGI in [1], in experiment [2], in experiment [3], in experiment [4], in experiment [5] and in experiment [6] was more than 100 µM throughout. Also, the TGI in experiment [7], in experiment [8], in [9] and in [10] was more than 100 µM throughout.

For `Cc1cc(C)c(N=Nc2c(O)c(S(=O)(=O)O)cc3cc(S(=O)(=O)O)ccc23)cc1C`, the TGI in experiment [1], in [2], in experiment [3], in experiment [4], in experiment [5] and in [6] was more than 100 µM each time. Besides, the TGI in experiment [7], in experiment [8], in experiment [9] and in [10] was more than 100 µM in each case.

`COc1ccc(N2C(=O)C3CC4=CC(=O)C[C@H]4[C@H]32)cc1` (stereo not given in full): the TGI in experiment [1], in experiment [2], in experiment [3], in experiment [4], in [5] and in experiment [7] was more than 100 µM each time. For the same molecule, the TGI in [8], in [9] and in experiment [10] was more than 100 µM each time.

In the case of `CC1=CC(=O)/C(=C/n2c(=S)[nH]c3ccccc32)C(=O)O1`, the TGI in [1], in experiment [2], in [3], in experiment [4], in [5] and in experiment [6] was more than 100 µM throughout. Besides, the TGI in [8], in [9] and in [10] was more than 100 µM throughout.

Regarding `Cc1nc2c(=O)[nH]c3ccc(Cl)cc3c2o1`, the TGI in experiment [1], in experiment [2], in experiment [3], in [4], in experiment [5] and in experiment [6] was more than 100 µM in each case. Besides, the TGI in experiment [8], in [9] and in [10] was more than 100 µM in each case.

With `CN1B(c2ccccc2)N(C)C(=O)N(C)C1=O`, the TGI in experiment [2], in experiment [3], in [4], in experiment [5], in experiment [6] and in experiment [9] was more than 100 µM throughout. The TGI in experiment [10] is more than 100 µM.

Consider `O=S(=O)(/N=C(\NO)Nc1ccc(Cl)cc1)c1ccc(-c2ccccn2)s1`, for which the TGI is 40.2 µM in experiment [1]; more than 100 µM in experiment [2]; more than 100 µM in [3]; more than 100 µM in experiment [4]; more than 100 µM in [6]; more than 100 µM in experiment [7]. The TGI in [8], in experiment [9] and in experiment [10] was more than 100 µM each time.
